From patent US20260240903A1, “USE OF TRIVALENT CHROMIUM IONS AND/OR METAL CHROMIUM IN PREPARATION OF DRUG FOR IMMUNOTHERAPY OF TUMORS” (SHENZHEN LUOHU PEOPLE'S HOSPITAL, priority 2023, published 2026)

Experiments:
[1] = system: subcutaneous melanoma (B16F10 cells); test: Growth of subcutaneous melanoma in B16F10 tumor-bearing mice; type: in vivo; conditions: B16F10 tumor-bearing C57BL/6 mice, vein injection twice at 4-day interval; BMS-202 0.1 mg/mouse, Cr^3+ 100 μg/mL 100 μL, 12 days
Excerpt: A batch of SPF C57BL/6 mice (6 weeks old) were purchased from a company. B16F10 cells were selected as subcutaneous tumor model cells. 5×10^5 B16F10 cells were inoculated on a right side of a dorsal flank of each mouse and cultured for 13 days. When tumor volumes reached 100-200 mm^3, the modeling was successful. The obtained tumor-bearing mice can be used for a subsequent in vivo experiment. Animal experiments all comply with requirements for animal protection ethics and welfare.
The successfully constructed B16 tumor-bearing mice were divided into four groups: a CrCl3 experimental group (amount of chromium ions: 100 μg/mL, 100 μL), a BMS experimental group (0.1 mg/mouse), a CrCl3+BMS experimental group (100 μg/mL, 100 μL CrCl3+0.1 mg BMS/mouse) and a control group (normal saline, 100 μL) (n=3 for each group). On the first day, CrCl3, BMS and CrCl3+BMS were injected into veins of mice in different groups, respectively. […] Tumor growth was monitored every two days by a digital caliper with a tumor volume calculation formula of ½×L×W^2. On the 12th day of treatment, the mice were euthanatized.

macrophages (RAW264.7) = test: Transwell detection of the promotion of macrophage migration by metal ions; type: cell-based, mouse; conditions: for ability to promote the migration of macrophages: liver cancer cells in lower chamber, metal ions 0, 500, 1000, 2000 μM, RAW264.7 in upper chamber
Excerpt: This example provides the establishment and validation of a platform for screening metal ions that promotes the migration of immune cells. A specific method is described below. • 1. Preparation of metal ions: metal compounds such as zinc chloride, potassium chloride, magnesium chloride, manganese chloride, anhydrous calcium chloride, aluminium sulfate (octadecahydrate), anhydrous copper(II) chloride, anhydrous iron(III) chloride, iron(II) chloride, chromium(III) chloride hexahydrate and anhydrous cobalt(II) chloride were prepared into solutions ranging from 0 μM to 2000 μM using normal saline, respectively. • 2. Preparation of BM-DCs (bone marrow-derived dendritic cells), RAW264.7 (mouse monocytic leukemia macrophage cells) and mouse spleen lymphocytes • (1) Acquisition of mouse BM-DCs: bone marrow was taken from hind limbs of […] mice, and treated with a red blood cell lysis buffer to remove red blood cells; bone marrow cells (4×10^6 cells) were cultured in a 10 cm culture dish, and 10% FBS, mercaptoethanol (2-ME, 0.8 ng/ml, Sigma) and mouse granulocyte-macrophage colony-stimulating factor (GM-CSF, 20 ng/mL, PeproTech) were added to a DMEM medium and cultured for 7 days; expression levels of CD11c, CD80 and CD86 in cells were detected using antibodies and a flow cytometer. • (2) Mouse macrophages RAW264.7: derived from a cell bank of the Chinese Academy of Sciences and cultured. • (3) Mouse spleen lymphocytes: spleens of C57BL/6 mice were acquired and filtered by a screen into single cells, treated with a red blood cell lysis buffer to remove red blood cells, and centrifuged with lymphocyte isolation solution to isolate the cells for in vitro culture. • 3. Transwell detection of the promotion of the migration of immune cells by metal ions
Liver cancer cells were placed in lower chambers (12 wells) of a Transwell plate, and the above metal ion solutions with different concentrations (0 μM, 500 μM, 1000 μM and 2000 μM) were added to the lower chambers, respectively. After 24 h, the BM-DCs, the RAW264.7 cells and the spleen lymphocytes were placed in upper chambers (2×10^4 cells/well) of the Transwell plate, respectively. The cells were co-cultured for a certain period of time, and nylon membranes of the chambers were taken and stained to observe the migration of the cells.

RAW264.7 cells = test: CCK-8 assay of toxicity of metal ions; type: cell-based, mouse; conditions: 0-200 μg/mL metal ions, 24 h
Procedure: Toxicities of metal ions with different concentrations on RAW264.7 cells were quantified through a CCK-8 assay. Specific steps are as follows: RAW264.7 cells (2×10^4 cells/well, n=4) were inoculated in a 96-well plate, stayed for a whole night and cultured by media containing metal ions with different concentrations (0 μg/mL, 25 μg/mL, 50 μg/mL, 100 μg/mL and 200 μg/mL) for 24 h, respectively, and cell viability was measured through CCK-8.

[2] = system: MIP-1α secretion in RAW264.7 cells; test: ELISA of MIP-1α secretion in RAW264.7 cells; type: cell-based, mouse; conditions: Cr^3+ 0, 50, 100, 200 μg/mL, 48 h
Procedure: (§1) Cr^3+ with different concentrations (0 μg/mL, 50 μg/mL, 100 μg/mL and 200 μg/mL) was co-incubated with RAW264.7 cells (1×10^6 cells/well) for 48 h. Cell supernatants and protein samples were collected, and various types of […] including MIP-la were detected through ELISA. The expression of various proteins in a PI3K/Akt/mTOR pathway was detected through protein immunoblotting.

PI3K/AKT/mTOR pathway = test: Protein immunoblotting of the PI3K/Akt/mTOR pathway in RAW264.7 cells; type: cell-based, mouse
Procedure: as §1

IR tyrosine kinases = IR tyrosine kinases (Homo sapiens, UniProt P06213); conditions: background statement; cited from earlier work
Chain of IR tyrosine kinases (P06213 28-1382): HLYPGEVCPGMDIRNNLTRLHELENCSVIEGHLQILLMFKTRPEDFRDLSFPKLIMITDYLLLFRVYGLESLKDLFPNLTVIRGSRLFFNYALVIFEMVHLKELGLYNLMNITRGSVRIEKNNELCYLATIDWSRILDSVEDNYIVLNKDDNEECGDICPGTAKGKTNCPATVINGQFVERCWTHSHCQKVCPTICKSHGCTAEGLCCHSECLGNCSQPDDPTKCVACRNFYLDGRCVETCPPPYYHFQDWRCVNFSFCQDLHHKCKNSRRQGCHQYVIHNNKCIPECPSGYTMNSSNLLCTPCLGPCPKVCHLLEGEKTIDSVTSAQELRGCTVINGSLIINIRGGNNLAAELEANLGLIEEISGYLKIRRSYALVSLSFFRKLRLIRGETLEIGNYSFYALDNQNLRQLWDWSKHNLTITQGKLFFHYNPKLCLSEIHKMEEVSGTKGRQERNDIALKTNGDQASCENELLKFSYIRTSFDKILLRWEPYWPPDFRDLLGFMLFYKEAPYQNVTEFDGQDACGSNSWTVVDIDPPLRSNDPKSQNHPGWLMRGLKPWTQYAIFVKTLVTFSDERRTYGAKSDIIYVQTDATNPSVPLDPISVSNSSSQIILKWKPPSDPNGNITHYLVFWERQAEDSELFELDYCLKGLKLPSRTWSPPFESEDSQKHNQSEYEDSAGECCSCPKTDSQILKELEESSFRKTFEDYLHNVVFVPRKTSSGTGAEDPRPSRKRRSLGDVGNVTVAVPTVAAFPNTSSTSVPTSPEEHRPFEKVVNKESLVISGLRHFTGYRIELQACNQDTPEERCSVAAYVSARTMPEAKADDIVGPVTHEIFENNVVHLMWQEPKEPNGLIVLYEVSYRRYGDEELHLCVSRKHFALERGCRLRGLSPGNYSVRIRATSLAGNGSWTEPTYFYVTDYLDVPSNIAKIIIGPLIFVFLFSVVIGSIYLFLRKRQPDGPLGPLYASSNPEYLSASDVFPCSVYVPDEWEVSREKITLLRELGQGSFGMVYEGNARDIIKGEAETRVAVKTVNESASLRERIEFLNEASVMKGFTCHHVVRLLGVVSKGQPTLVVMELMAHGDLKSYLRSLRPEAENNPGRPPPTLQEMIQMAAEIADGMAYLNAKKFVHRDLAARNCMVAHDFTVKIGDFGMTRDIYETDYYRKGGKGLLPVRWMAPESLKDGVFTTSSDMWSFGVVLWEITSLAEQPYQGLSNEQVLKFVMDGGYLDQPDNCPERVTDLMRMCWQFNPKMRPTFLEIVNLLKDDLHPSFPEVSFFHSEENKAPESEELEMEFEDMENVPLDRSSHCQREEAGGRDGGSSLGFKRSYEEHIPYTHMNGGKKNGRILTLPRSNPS

[3] = Stability of metal ions in vitro and in vivo; type: physicochemical

| Compound | effect on tumor growth of subcutaneous melanoma [1] | ability to promote the migration of macrophages (macrophages (RAW264.7)) | toxicity on RAW264.7 cells (cell viability, CCK-8) (RAW264.7 cells) | migration promoting effect on macrophages (macrophages (RAW264.7); Cr^3+ between 0 μM and 2000 μM) | secretion of MIP-1α [2] | activation of the PI3K/AKT/mTOR pathway (PI3K/AKT/mTOR pathway) | expression of AKT and phosphorylated AKT (pAKT) (PI3K/AKT/mTOR pathway; 48 h) | enhancement of the activity of IR tyrosine kinases (IR tyrosine kinases) | stability in vitro and in vivo [3] |
| --- | --- | --- | --- | --- | --- | --- | --- | --- | --- |
| COc1nc(OCc2cccc(-c3ccccc3)c2C)ccc1CNCCNC(C)=O [BMS-202, reference compound] | no significant limiting effect on the tumor growth |  |  |  |  |  |  |  |  |
| [Cl][Cu][Cl] [Cu^2+, anhydrous copper(II) chloride, reference compound] |  | have an ability to promote the migration of macrophages | relatively high cytotoxicity |  |  |  |  |  |  |
| O.O.O.O.O.O.[Cl][Cr]([Cl])[Cl] [Cr^3+, chromium(III) chloride hexahydrate] | no significant limiting effect on the tumor growth | have an ability to promote the migration of macrophages | good biocompatibility (low biological toxicity) | significant migration promoting effect | significantly increased | can activate the PI3K/AKT/mTOR pathway | induces high expression | six times |  |
| [Cl][Fe][Cl] [Fe^2+, iron(II) chloride, reference compound] |  | have an ability to promote the migration of macrophages |  |  |  |  |  |  | poor stability in vitro and in vivo and is easily oxidized to Fe^3+ |
